Measured values from patent US20200040348A1, “CONTROL OF VIRAL AND BACTERIAL INFECTION BY ANTIMICROBIAL PEPTIDES RETROCYCLIN AND/OR PROTEGRIN EXPRESSED IN CHLOROPLASTS” (THE TRUSTEES OF THE UNIVERSITY OF PENNSYLVANIA, priority 2010, published 2020).
Entries after “also recorded” stand apart in the source; their conditions may differ. Where no end group is shown, it is not given here.

Legend:
[1] = system: vegetative B. anthracis cells; details: cited from earlier work
[2] = system: Erwinia carotovora; assay: Erwinia carotovora inoculation and bacterial count in tobacco leaves; assay type: in vivo; details: plants inoculated with 1.0×10^5 cfu/ml E. carotovora
Method: The leaves of untransformed and transplastomic tobacco plants were inoculated with 20 μl of bacterial suspension (1.0×10^5 cfu/ml) through a syringe. Each leaf disc (0.8 cm diameter) was punched off from the inoculated area of an individual plant after 0, 1 or 3 days of incubation. The bacterial population inside the leaf was calculated as follows. Leaf tissue was ground in 100 μl sterilized water in a microcentrifuge tube. The suspension was serially diluted with sterilized water and was then plated on nutrient broth agar plates (Difco). Colonies were counted after one day of incubation at 25° C.

[3] = system: tobacco mosaic virus (TMV); assay type: in vivo; details: transplastomic tobacco plants, within 20 days after inoculation
[4] = system: Erwinia carotovora; assay: In planta assay for resistance to Erwinia soft rot (syringe or sandpaper inoculation of tobacco leaves); assay type: in vivo; details: mature transplastomic tobacco leaves; for necrosis at the site of inoculation: sand paper method, up to 10^8 E. carotovora cells; for necrosis surrounding the point of inoculation: syringe method, 10^8, 10^6, 10^4 and 10^2 E. carotovora cells, peptide expressed in chloroplasts
[5] = system: HIV-1; details: organ-like construct of human cervicovaginal tissue; cited from earlier work
[6] = system: T-tropic and M-tropic strains of HIV-1; details: human CD4+ lymphocytes, in vitro; cited from earlier work
[7] = system: gram-positive or gram-negative bacteria; details: cited from earlier work

| Substance | minimum effective concentration [1] | symptoms of necrosis [2] | symptoms of TMV infection [3] | necrosis at the site of inoculation [4] | necrosis surrounding the point of inoculation [4] | amount that prevents HIV-1 infection [5] | concentration that inhibits proviral DNA formation and protects from infection [6] | minimum inhibitory concentrations [7] |
| --- | --- | --- | --- | --- | --- | --- | --- | --- |
| Retrocyclin-1 | < 1 µg/mL |  |  |  |  |  |  |  |
| Retrocyclin-101 [RC101] |  | no apparent symptoms of necrosis | didn't show obvious symptoms of TMV infection; also recorded: resistant to TMV infection | no necrosis | no areas of necrosis | 2 µg |  |  |
| Retrocyclin |  |  |  |  |  |  | 10 to 20 µg/mL |  |
| Protegrin-1 (RGGRLCYCRRRFCVCVGR; not fully specified (bridges); ends and bridges not checked; also: two disulfide bonds, pairing not given here) [PG1] |  | no apparent symptoms of necrosis | typical mosaic, necrosis and wrinkle symptoms; also recorded: not effective | mild discoloration | no areas of necrosis |  |  | 0.12 to 2 µg/mL |
